The record followed here is paper PMC8418751, “3D-printing magnesium–polycaprolactone loaded with melatonin inhibits the development of osteosarcoma by regulating cell-in-cell structures” (Journal of Nanobiotechnology, 2021).

Data set [1] can be described thus: In vivo safety of melatonin in mice (body weight, HE of main organs). The conditions noted are these: tail vein, once every 2 days at 3 mg each time, 30 days. The protocol: Tissues were fixed in 4% paraformaldehyde. After fixation, the samples were decalcified in 10% EDTA for 21 days before paraffin embedding and then sliced microtomically into a systematic series of 16 μm sections. Standard HE staining was performed and photographed. The average number of deposits per section was calculated using Image-Pro Plus 6.0 (Media Cybernetics, USA).
The safety of melatonin in mice was further studied by injecting melatonin into the tail vein of mice once every 2 days at 3 mg each time. After 30 days, the heart, liver, spleen, lung, kidney and other important organs were collected, sectioned and stained with HE for microscopy observation. […] Along with the increasing of the mass ratio of melatonin and SunP Gel G1, the LE and LC were increased. The LE reached peak at mass ratio of 1:2 and was decreased at mass ratio of 2:1. The mass ratio of 1:2 was selected for further experiments.

Data set [2] can be described thus: In vitro release of melatonin (dialysis bag, PBS pH 7.4). In kind it is physicochemical. The conditions noted are these: at 10 h; PBS pH 7.4, 37 °C. How it is done: Standard curve of melatonin was first draw using PBS (pH = 7.4) as solvent under the wavelength of the maximum absorption peak (278 nm). […] The dialysis bag was then placed in a beaker containing the same pH PBS buffer and was vibrated horizontally in a constant temperature shaker (37 °C ± 0.5 °C) with a vibration frequency of 50 times/min. The release liquid (5 ml) was replaced with same amounts of fresh PBS at selected time intervals. The absorbance value of the solution was measured at 278 nm and the drug release rate was calculated as follow: R(%)=ρnV+Vi∑tn-iρi/MD×100 where R means the cumulative drug release rate (%); n means the number of sampling. ρn represents the mass concentration (g/l) of the drug in the nth release. V represents the total volume of the release liquid. ρi represents the mass concentration (g/l) of the drug in the ith release, Vi represents the volume of the release liquid at the ith sampling and MD means the mass of drug loaded (g).

In a further data set the test system is human OS (U2OS) cells. Description: U2OS xenograft in nude mice: OS growth and metastasis. The data set is classed as in vivo, Balb/c nude mice. The following applies: nude mice with implanted U2OS cells, 27 days. How it is done: Female Balb/c nude mice (n = 6, 8 weeks old) were purchased from the Experimental Animal Center of Jilin University. The mice were bred under temperature-controlled conditions at 22.6 ± 2 °C with a 12-h day/light cycle. All applicable institutional and national guidelines for the care and use of animals were followed and the animal experiments were approved by the Animal Care and Use Committee of China Medical University. The heterograft mouse model was established by subcutaneous injection of 2 × 10^8 human OS (U2OS) cells suspended in 0.2 ml medium into the root of the right thigh. […]
The mice were sacrificed. […] Histological alterations were evaluated using a fluorescence microscope (Nikon Eclipse Ti, Optical Apparatus Co., Ardmore, USA) and a confocal microscope (Carl Zeiss, LSM 780).
Tissues were fixed in 4% paraformaldehyde. […] The average number of deposits per section was calculated using Image-Pro Plus 6.0 (Media Cybernetics, USA). […]

In data set [3] the test system is U2OS cells. Description: CIC formation in U2OS cells (immunofluorescence, electron microscope). In kind it is cell-based, human. The conditions noted are these: immunofluorescence and electron microscope. The protocol: The cells were scrapped after treatment, collected by centrifugation, washed with PBS and fixed with 5% glutaraldehyde. After the cells were dehydrated, embedded, sectioned, stained, the mitophagosomes were observed by TEM. The quantity of CIC structures was calculated in 10 fields a view. After treatment, the cells were fixed with 4% paraformaldehyde at room temperature (23–25 °C) for 15 min. After PBS washing, cells were permeabilized with 0.2% Triton X-100 for 5 min. Sections were incubated in a blocking buffer containing 5% BSA for 30 min at room temperature (23–25 °C), followed by incubation with primary antibodies overnight at 4 °C. Secondary antibodies labeled with fluorescein (1:500, Abcam) were applied for 120 min. After incubating with 0.1% DAPI for 10 min and another wash with PBS, images were captured on a wide field fluorescent microscope (Olympus, Japan). Each experiment was repeated three times (total, n = 90 cells) and the fluorescence intensities were quantified with the ImageJ software. […] The cells were then washed with ice-cold PBS, and analyzed under a confocal laser scanning microscope (Olympus, Tokyo, Japan). […] Image-Pro Plus 6.0 (Media Cybernetics) was used for quantifying mitochondria.

Data set [4] relates to PKA-Rho/ROCK signaling pathway. Description: Western blot of PKA, p-PKA, Rho, ROCK in U2OS cells. In kind it is cell-based, human. How it is done:
Cells or tissues were washed with ice-cold PBS and resuspended in lysis buffer (50 mM Tris–HCl, 150mM NaCl, 1% NP-40, 0.5% sodium deoxycholate, 0.1% sodium dodecyl sulfate) containing protease and phosphorylase inhibitor cocktails. After centrifugation at 12,000g for 30 min at 4 °C, the supernatant containing total protein was collected and quantified using the BCA protein concentration assay kit (Boster, Hubei, China). The samples were separated by SDS-PAGE and then transferred to polyvinylidene difluoride (PVDF) membranes (Millipore, Massachusetts, USA) (210 mA, between 30 and 120 min according to the molecular mass of the protein). After blocking for 2 h with 5% non-fat milk, the PVDF membranes were incubated with the appropriate primary antibodies (1:500 or 1:1000 dilution) at 4 °C overnight. The blots were then incubated with anti-mouse or anti-rabbit IgG conjugated to horseradish peroxidase (1:5000 dilution) for 1 h at room temperature (23–25 °C). Immunoreactive bands were visualized by the EC3 imaging system (UVP Inc., California, USA), and quantified with the ImageJ software (NIH, USA). The ratios between the proteins of interest and loading controls of the same sample were calculated as relative content and expressed graphically. The results were averaged from three independent experiments.
On the technique in general: In western blotting, separated proteins are transferred to a membrane and probed.

Data set [5] has as its system U2OS cells. Kind of data set: Mitochondrial physiology of U2OS cells (fluorescence, Western blot, mtDNA, ATP, O2 consumption). In kind it is cell-based, human. The following applies: 24 h. How it is done:
(§1) U2OS cells were divided into 8 groups: (1) Control group: without any treatment; (2) MT group: U2OS cells were added with 1 mM melatonin; (3) MT + ROCK activator group: U2OS cells were added with 1mM melatonin and 50 µM ROCK activator (pentanoic acid); (4) MT + ROCK inhibitor group: U2OS cells were added with 1mM melatonin and 50 µM ROCK inhibitor (ROCK inhibitor-2); (5) Mg–PCL group: U2OS cells were co-cultured with Mg–PCL scaffold; (6) Mg–PCL + MT group: U2OS cells were co-cultured with Mg–PCL scaffold loaded with melatonin; (7) Mg–PCL + MT + ROCK activator group: U2OS cells were co-cultured with Mg–PCL scaffold loaded with melatonin and added with 50 µM ROCK activator (pentanoic acid); and (8) Mg–PCL + MT + ROCK activator group: U2OS cells were co-cultured with Mg–PCL scaffold loaded with melatonin and added with 50 µM ROCK inhibitor (ROCK inhibitor-2).
Cells or tissues were washed with ice-cold PBS and resuspended in lysis buffer (50 mM Tris–HCl, 150mM NaCl, 1% NP-40, 0.5% sodium deoxycholate, 0.1% sodium dodecyl sulfate) containing protease and phosphorylase inhibitor cocktails. After centrifugation at 12,000g for 30 min at 4 °C, the supernatant containing total protein was collected and quantified using the BCA protein concentration assay kit (Boster, Hubei, China). […] Immunoreactive bands were visualized by the EC3 imaging system (UVP Inc., California, USA), and quantified with the ImageJ software (NIH, USA). The ratios between the proteins of interest and loading controls of the same sample were calculated as relative content and expressed graphically. […]
After treatment, the cells were fixed with 4% paraformaldehyde at room temperature (23–25 °C) for 15 min. […] Each experiment was repeated three times (total, n = 90 cells) and the fluorescence intensities were quantified with the ImageJ software. […] The cells were then washed with ice-cold PBS, and analyzed under a confocal laser scanning microscope (Olympus, Tokyo, Japan). […] Image-Pro Plus 6.0 (Media Cybernetics) was used for quantifying mitochondria. […]

The subject of data set [6] is U2OS cells. Kind of data set: Wound-healing assay. In kind it is cell-based, human. The protocol: as §1
The U2OS cells were plated at 8.5 × 10^5/well on 6-well plates for 48 h and were wounded by scratching with a pipette tip. They were subsequently incubated with DMEM containing 0.5% FBS. After repeated treatment at 0, 12, 24 and 48 h, the cells were photographed using a phase contrast microscope (Olympus, Japan).

The test system of data set [7] is U2OS cells. Description: Transwell (Boyden chamber) cell invasion and migration assays. In kind it is cell-based, human. The conditions noted are these: 24 h. How it is done: as §1
To examine the effects of melatonin and CIC formation on the invasiveness of U2OS cells in vitro, we employed a modified Boyden chamber invasion assay with Matrigel coating. After treatment, the cells were seeded into the upper section of the Boyden chamber (Neuro Probe, Cabin John, MD, USA) at densities of 2.0 × 10^5/ml, and then incubated for 24 h at 37 °C. Finally, the cells were counted under a light microscope. Cell migration was measured by a cell invasion assay without Matrigel coating.

For the molecule `COc1ccc2[nH]cc(CCNC(C)=O)c2c1` [melatonin, Melatonin], in data set [1], the “organ damage (HE staining of heart, liver, spleen, lung, kidney)” value is “no organ damage was observed” and the weight of mice result is “stable without notable changes”. This molecule also gave a cumulative release rate in data set [2] of 96.3%. Besides, in the data set on human OS (U2OS) cells, the “cell apoptosis of xenograft tumors (TUNEL)” value was “promoted” and the “tumor weight of xenograft tumors” value is reported as “effectively inhibited”. Besides, in the data set on human OS (U2OS) cells (melatonin 40 mg kg−1 day−1 i.p. or loaded scaffold, ROCK activator/inhibitor 10 mg kg−1 day−1 i.p.), the “cell proliferation of xenograft tumors (Ki-67)” value is listed as “effectively inhibited”. For the same molecule, the “number of CIC structure” value in the data set on U2OS cells [3] is “significantly reduced”. In addition, in data set [4], the “PKA phosphorylation (Western blot)” value is listed as “promote PKA phosphorylation”; the “Rho and ROCK expressions (Western blot)” value is recorded as “reduced”. Also, in the data set with U2OS cells [5] (1 mM melatonin, 50 µM ROCK activator/inhibitor), the “relative fluorescence of mitochondria” value is recorded as “reduced”. Besides, in the data set with U2OS cells [5] (Western blot), the “expression of mitochondrial biogenesis-related proteins PGC1α, NRF1 and TFAM” value is given as “downregulated”; the “expression of mitochondrial biomarkers TOM20, COX-4l1 and ATP Synβ” value was “reduced”. Further, in the data set on U2OS cells [6] (U2OS cells), the “cell migrated area relative to control (wound healing)” value is reported as “significantly decreased”. Further, in the data set on U2OS cells [6] (U2OS cells, 0, 12, 24 and 48 h), the “scratch width (wound healing)” value is “wider”. The “number of invaded and migrated cells (Transwell)” value in the data set with U2OS cells [7] is “significantly lower”.
